In assay [1] the target is T1, Mitogen-activated protein kinase 14 (Homo sapiens, UniProt Q16539). As to the kind of experiment: Inhibition of p38alpha.
In assay [2] the target is T1, Mitogen-activated protein kinase 14. Put plainly: Inhibition of p38alpha assessed as residual activity at 10 uM relative to control.
In assay [3] the target is Mitogen-activated protein kinase 1 (Homo sapiens) (UniProt P28482). Put plainly: Residual activity of ERK2 at 10 uM relative to control.
The target in assay [4] is Mitogen-activated protein kinase 8 (Homo sapiens) (UniProt P45983). As to the kind of experiment: Residual activity of JNK1 at 10 uM relative to control.
Assay [5] is described as follows: Inhibition of PKA; values are per cent of control.
Assay [6] deals with T2, Mitogen-activated protein kinase 12 (Homo sapiens) (UniProt P53778).
T2 sequence (whole entry): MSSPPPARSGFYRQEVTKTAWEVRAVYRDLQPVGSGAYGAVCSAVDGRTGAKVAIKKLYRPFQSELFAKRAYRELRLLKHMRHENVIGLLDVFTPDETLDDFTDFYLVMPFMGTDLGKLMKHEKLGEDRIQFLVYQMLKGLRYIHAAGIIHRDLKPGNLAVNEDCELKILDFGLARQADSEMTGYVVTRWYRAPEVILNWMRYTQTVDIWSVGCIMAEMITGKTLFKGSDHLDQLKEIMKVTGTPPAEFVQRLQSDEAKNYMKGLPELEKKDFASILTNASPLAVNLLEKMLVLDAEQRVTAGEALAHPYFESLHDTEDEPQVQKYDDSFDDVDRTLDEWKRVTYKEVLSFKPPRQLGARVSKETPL
As to the kind of experiment: Residual activity of p38-gamma at 10 uM relative to control. It is filed as functional.

Assay [7] concerns the target T3, Mitogen-activated protein kinase 15 (Homo sapiens) (UniProt Q8TD08).
T3 sequence (whole entry): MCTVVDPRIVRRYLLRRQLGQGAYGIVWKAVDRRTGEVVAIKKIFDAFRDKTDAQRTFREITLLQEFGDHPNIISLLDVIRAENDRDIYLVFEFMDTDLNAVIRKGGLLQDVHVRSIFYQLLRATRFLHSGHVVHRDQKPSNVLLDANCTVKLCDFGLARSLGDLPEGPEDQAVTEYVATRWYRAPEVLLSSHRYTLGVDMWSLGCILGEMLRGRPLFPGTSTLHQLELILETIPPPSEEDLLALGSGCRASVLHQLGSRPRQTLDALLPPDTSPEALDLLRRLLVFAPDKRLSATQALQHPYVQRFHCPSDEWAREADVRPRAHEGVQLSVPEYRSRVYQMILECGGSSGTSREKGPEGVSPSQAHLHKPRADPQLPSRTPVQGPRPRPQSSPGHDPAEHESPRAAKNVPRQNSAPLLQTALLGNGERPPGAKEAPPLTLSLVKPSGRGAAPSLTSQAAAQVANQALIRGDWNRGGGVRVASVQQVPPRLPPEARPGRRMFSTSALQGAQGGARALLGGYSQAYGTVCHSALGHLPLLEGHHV
Put plainly: Residual activity of ERK8 at 10 uM relative to control.

For assay [8], the target named is Mitogen-activated protein kinase 3 (Homo sapiens) (UniProt P27361). As to the kind of experiment: Inhibition of ERK1 assessed as residual activity at 10 uM relative to control.
Assay [9] addresses T4, Mitogen-activated protein kinase 13 (Homo sapiens) (UniProt O15264).
T4 sequence (whole entry): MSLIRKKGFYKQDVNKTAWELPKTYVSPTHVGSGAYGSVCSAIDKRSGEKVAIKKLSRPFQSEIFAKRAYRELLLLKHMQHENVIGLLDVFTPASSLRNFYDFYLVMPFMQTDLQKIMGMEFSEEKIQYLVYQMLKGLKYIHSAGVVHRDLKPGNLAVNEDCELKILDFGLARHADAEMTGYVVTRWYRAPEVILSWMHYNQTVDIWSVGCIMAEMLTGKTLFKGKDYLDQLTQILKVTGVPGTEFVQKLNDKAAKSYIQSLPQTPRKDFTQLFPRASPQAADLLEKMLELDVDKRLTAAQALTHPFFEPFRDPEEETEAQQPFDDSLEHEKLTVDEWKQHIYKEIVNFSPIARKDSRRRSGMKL
Put plainly: Residual activity of p38delta at 10 uM relative to control.

The target in assay [10] is Mitogen-activated protein kinase 11 (Homo sapiens) (UniProt Q15759). As to the kind of experiment: Residual activity of p38beta at 10 uM relative to control.
The target in assay [11] is T5, Mitogen-activated protein kinase 9 (Homo sapiens, UniProt P45984). Put plainly: Inhibition of JNK2.
Target sequence in this assay (P45984 whole entry): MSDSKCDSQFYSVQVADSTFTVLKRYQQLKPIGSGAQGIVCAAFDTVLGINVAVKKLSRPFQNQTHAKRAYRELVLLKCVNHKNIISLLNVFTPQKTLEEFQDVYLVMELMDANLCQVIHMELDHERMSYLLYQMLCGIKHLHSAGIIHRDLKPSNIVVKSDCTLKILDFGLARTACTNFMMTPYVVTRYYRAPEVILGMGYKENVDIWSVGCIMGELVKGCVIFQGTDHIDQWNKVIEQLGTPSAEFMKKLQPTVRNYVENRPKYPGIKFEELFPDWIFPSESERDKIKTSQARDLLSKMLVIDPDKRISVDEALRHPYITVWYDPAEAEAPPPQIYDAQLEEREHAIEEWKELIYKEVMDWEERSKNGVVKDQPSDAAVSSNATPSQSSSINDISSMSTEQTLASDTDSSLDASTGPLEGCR
Assay [12] addresses T5, Mitogen-activated protein kinase 9. Put plainly: Residual activity of JNK2 at 10 uM relative to control.
Target sequence in this assay (P45984 whole entry, looked up): as the sequence (P45984 whole entry) above
The target of assay [13] is Tyrosine-protein kinase Lck (Homo sapiens) (UniProt P06239). Put plainly: Inhibition of Lck; values are per cent of control.
Assay [14] deals with T6, Serine/threonine-protein kinase D1 (Homo sapiens) (UniProt Q15139).
T6 sequence (whole entry): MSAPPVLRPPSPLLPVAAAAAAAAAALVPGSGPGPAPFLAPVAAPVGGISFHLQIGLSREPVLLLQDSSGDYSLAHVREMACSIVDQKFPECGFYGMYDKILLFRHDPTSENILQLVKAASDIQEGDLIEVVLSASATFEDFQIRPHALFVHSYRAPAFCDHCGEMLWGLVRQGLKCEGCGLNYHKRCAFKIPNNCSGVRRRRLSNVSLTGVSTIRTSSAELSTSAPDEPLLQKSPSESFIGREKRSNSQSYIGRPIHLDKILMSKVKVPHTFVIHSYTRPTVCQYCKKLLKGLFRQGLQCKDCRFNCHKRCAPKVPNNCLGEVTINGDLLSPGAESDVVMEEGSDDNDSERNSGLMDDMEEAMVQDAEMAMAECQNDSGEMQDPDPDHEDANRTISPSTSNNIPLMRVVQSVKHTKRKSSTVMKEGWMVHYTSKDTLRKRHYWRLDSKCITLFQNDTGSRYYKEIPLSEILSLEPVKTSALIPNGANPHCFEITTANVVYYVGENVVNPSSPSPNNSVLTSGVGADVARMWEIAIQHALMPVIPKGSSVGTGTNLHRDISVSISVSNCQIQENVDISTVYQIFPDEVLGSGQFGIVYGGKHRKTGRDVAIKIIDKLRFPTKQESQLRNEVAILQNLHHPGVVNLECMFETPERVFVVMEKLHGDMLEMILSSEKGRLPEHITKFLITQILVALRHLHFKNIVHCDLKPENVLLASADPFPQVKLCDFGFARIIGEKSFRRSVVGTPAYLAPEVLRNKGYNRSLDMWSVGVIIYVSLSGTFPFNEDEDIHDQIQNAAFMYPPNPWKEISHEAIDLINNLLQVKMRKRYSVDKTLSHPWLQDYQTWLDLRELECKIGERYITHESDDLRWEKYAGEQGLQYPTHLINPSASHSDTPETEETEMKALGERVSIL
As to the kind of experiment: Inhibition of PKD1; values are per cent of control.

In assay [15] the target is Mitogen-activated protein kinase 10 (Homo sapiens) (UniProt P53779). As to the kind of experiment: Residual activity of JNK3 at 10 uM relative to control.
Assay [16] concerns the target Aurora kinase B (Homo sapiens) (UniProt Q96GD4). As to the kind of experiment: Inhibition of Aurora B; values are per cent of control.
Assay [17] in a line: Inhibition of Aurora C; values are per cent of control.

Mitogen-activated protein kinase 11 (Homo sapiens), sequence (Q15759 whole entry): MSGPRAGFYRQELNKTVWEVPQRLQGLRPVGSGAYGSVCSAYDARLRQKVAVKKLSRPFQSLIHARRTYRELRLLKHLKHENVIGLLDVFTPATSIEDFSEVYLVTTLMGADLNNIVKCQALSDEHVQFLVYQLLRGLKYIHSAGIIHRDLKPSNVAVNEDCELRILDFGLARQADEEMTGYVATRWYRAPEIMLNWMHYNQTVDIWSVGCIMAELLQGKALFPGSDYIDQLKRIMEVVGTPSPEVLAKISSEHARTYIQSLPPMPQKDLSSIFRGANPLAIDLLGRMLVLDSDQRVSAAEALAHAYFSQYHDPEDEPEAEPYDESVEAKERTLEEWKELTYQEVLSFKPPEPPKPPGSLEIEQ
T1 sequence (Q16539 whole entry): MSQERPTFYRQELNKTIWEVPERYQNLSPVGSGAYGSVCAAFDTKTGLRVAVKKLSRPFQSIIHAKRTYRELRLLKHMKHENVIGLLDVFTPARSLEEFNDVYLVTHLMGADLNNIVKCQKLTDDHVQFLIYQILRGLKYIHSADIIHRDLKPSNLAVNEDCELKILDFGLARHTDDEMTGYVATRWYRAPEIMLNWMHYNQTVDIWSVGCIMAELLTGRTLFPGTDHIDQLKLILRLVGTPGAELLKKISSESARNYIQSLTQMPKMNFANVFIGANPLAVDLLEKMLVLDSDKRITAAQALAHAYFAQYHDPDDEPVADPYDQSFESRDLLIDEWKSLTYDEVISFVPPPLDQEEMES
Mitogen-activated protein kinase 10 (Homo sapiens), sequence (P53779 whole entry): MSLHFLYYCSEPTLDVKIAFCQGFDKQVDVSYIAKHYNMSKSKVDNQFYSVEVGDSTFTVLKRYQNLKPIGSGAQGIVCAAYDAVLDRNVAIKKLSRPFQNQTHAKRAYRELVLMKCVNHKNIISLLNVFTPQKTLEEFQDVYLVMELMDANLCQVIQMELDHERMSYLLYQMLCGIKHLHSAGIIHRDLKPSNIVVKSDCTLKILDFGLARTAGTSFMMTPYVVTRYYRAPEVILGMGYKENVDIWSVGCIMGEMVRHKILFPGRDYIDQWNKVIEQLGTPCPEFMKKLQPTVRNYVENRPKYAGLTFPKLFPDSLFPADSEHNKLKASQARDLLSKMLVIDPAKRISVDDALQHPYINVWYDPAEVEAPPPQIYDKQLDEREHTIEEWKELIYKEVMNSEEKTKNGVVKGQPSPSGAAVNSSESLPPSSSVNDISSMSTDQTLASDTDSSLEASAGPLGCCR
Mitogen-activated protein kinase 3 (Homo sapiens), sequence (P27361 whole entry): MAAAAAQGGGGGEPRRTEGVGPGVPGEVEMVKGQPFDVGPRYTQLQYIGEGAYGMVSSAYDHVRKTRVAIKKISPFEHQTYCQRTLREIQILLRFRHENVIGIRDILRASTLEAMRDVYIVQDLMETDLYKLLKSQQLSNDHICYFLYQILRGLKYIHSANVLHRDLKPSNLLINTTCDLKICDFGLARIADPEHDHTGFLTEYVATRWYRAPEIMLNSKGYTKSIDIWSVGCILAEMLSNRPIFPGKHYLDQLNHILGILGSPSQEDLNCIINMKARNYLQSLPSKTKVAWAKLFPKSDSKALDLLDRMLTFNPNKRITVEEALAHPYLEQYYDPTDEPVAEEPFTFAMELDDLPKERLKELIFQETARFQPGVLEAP
Mitogen-activated protein kinase 8 (Homo sapiens), sequence (P45983 whole entry): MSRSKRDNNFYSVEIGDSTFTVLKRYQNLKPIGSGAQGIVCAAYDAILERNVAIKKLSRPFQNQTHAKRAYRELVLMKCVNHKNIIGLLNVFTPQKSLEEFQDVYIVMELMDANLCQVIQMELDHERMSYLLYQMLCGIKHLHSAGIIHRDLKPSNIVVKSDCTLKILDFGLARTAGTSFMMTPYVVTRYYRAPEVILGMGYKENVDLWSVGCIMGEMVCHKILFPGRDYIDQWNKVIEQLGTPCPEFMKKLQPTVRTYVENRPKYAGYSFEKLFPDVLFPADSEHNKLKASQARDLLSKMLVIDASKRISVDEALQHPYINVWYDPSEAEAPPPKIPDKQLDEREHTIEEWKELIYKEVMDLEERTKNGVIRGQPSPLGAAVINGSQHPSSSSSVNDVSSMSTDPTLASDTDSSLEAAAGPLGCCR
Mitogen-activated protein kinase 1 (Homo sapiens), sequence (P28482 whole entry): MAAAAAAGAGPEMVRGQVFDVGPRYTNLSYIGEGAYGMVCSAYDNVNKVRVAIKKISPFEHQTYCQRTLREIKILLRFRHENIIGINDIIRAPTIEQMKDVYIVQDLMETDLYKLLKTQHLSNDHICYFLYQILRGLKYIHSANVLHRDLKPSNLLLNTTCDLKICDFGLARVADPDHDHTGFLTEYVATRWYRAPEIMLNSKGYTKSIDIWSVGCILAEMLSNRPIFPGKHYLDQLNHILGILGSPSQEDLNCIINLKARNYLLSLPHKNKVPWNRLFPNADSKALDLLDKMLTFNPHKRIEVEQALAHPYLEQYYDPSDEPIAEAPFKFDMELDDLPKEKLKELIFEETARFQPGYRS
Aurora kinase B (Homo sapiens), sequence (Q96GD4 whole entry): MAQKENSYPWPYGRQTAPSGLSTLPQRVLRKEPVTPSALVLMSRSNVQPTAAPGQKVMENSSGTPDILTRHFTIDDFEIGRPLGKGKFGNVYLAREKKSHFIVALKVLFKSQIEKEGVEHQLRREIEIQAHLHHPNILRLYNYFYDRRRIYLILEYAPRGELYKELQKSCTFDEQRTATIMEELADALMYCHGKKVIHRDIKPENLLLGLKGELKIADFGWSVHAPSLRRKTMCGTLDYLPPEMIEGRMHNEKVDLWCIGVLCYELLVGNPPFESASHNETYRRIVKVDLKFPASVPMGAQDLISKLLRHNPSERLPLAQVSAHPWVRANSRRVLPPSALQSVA
Tyrosine-protein kinase Lck (Homo sapiens), sequence (P06239 2-509 limits assumed): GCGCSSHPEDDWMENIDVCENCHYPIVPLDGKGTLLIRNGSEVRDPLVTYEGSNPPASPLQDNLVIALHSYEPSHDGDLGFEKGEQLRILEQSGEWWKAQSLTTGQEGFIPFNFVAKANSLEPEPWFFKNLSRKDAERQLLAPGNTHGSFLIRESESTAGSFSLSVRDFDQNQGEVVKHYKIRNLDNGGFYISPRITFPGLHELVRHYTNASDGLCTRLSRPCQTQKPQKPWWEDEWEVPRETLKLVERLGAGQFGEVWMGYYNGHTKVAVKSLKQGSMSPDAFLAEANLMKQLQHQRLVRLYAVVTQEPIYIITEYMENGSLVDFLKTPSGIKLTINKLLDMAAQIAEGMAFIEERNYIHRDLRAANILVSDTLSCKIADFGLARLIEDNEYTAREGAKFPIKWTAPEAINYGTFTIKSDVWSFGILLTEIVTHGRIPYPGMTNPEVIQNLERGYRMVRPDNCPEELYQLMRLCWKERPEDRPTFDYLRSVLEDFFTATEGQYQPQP

`Cn1c(=O)c(-c2ccc(F)cc2)c(-c2ccncc2)c2ccccc21` showed an IC50 in [1] of 5.2 µM.

As to `CCC(O)C(O)n1c(=O)c(-c2ccccc2C)c(-c2ccncc2)c2ccccc21` (stereo not drawn), the Activity in assay [2] was 80%.

In the case of `CC(C)c1onc(-c2ccc(F)cc2)c1-c1ccncc1`, the Activity in assay [3] came out at 86%; in assay [4], 67%; in assay [2] it was 20%; in assay [6] it was 84%; in [7], 84%; in assay [8] it was 92%. The Activity was found to be 86% in assay [9], 95% in assay [10], 13% in [12] and 28% in assay [15]. Further, the values for the residual activity in assay [5], in assay [13] and in assay [14] were 28%, 42% and 60%, respectively. Moreover, the IC50 in assay [11] was determined as 1280 nM.

On to `CC1(C)OCC(Cn2c(=O)c(-c3ccc(F)cc3)c(-c3ccncc3)c3ccccc32)O1` (stereo not drawn), for which the Activity in assay [2] amounted to 55%.

`CC#Cn1c(=O)c(-c2ccc(F)cc2)c(-c2ccncc2)c2ccccc21` displayed an IC50 in assay [1] of 3.1 µM.

In [1], `CCn1c(=O)c(-c2ccc(F)cc2)c(-c2ccncc2)c2ccccc21` had an IC50 of 2.2 µM. This IC50 and that of the compound before are within 1.5-fold of each other.

Take `CC#COc1nc2ccccc2c(-c2ccncc2)c1-c1ccc(F)cc1`: the Activity in [2] stood at 79%.

In the case of `O=c1c(-c2ccc(F)cc2)c(-c2ccncc2)c2ccccc2n1CCc1ccccc1`, half-maximal inhibition in assay [1] (IC50) was put at 8.2 µM.

`CCC(O)C(O)n1c(=O)c(-c2ccc(F)cc2)c(-c2ccncc2)c2ccccc21` (stereo not drawn): in [2], the Activity was determined as 57%.

`O=c1cc(-c2ccncc2)c2ccccc2[nH]1`: in assay [2], the Activity is 78%.

In turn, `Cc1ccccc1-c1c(-c2ccncc2)c2ccccc2[nH]c1=O` registered an IC50 in assay [1] of 9.7 µM.

As to `O=c1[nH]c2ccccc2c(-c2ccncc2)c1-c1ccc(F)cc1`, the Activity in [3] was 93%; in assay [4] it was 86%; in assay [2], 53%; in assay [6], 89%; in assay [7] it was 73%; in assay [8], 84%. The Activity came to 91% in assay [9], 97% in assay [10], 89% in assay [12] and 106% in assay [15].

Turning to `CC(C)c1noc(-c2ccc(F)cc2)c1-c1ccncc1`, the Activity in assay [3] was found to be 88%; in assay [4] it was 98%; in assay [2], 50%; in [6], 94%; in assay [7], 88%; in [8], 87%. Also, the Activity in assay [9] was determined as 95%; in assay [10], 98%; in [12], 59%; in [15], 63%. Besides, the residual activity in assay [16] was determined as 22%; in [17] it was 35%.

Turning to `CCOc1nc2ccccc2c(-c2ccncc2)c1-c1ccc(F)cc1`, in assay [2], the Activity is 66%.

As for `O=c1[nH]c2ccccc2c(-c2ccccc2)c1-c1ccccc1`, in assay [2], the Activity was found to be 64%.

For orientation: IC50 means the point on the concentration scale where inhibition reaches its midpoint. By residual activity is commonly meant what remains of the control signal, in per cent. A lower residual activity goes with little activity left.

These data come from ChEMBL document CHEMBL1141471, “Implications for selectivity of 3,4-diarylquinolinones as p38alphaMAP kinase inhibitors” (Bioorg Med Chem Lett, 2008).
